# From PMC5054363 (Scientific Reports, 2016)
# Entries after “also recorded” stand apart in the source; their conditions may differ. *1 amine or outer side, *2 acyl side, *3 side chain or, on linkers, in order; H or OH if unused. Where a SMILES comes first, the peptide text is derived from it. Bridges are numbered along the chain shown (N, C = ends). [ ]: non-standard residue; d: D form. The star is where a group is joined. X1 = CC[C@H](C)[C@@H](N[*:1])[C@@H](O)CC(=O)O[C@H](C(=O)[C@H](C)C(=O)[*:2])C(C)C; NMeY = CN[C@@H](Cc1ccc(O)cc1)C(=O)O; dNMeL = CN[C@H](CC(C)C)C(=O)O; Pyruvoyl = CC(=O)C(=O)*
# Experiments:
# [1] = test system: NCI-H460 non-small cell lung cancer cells; assay: Cell growth inhibition (MTT, 72 h), NCI-H460; type: cell-based; settings: parental NCI-H460, 72 h
# Protocol: (§3) HeLa cervix adenocarcinoma (ATCC CCL-2), K-562 chronic myelogenous leukemia (ATCC CCL-243), NCI-H460 lung cancer (ATCC HTB-177) and HGC27 gastric cancer (ATCC CRL-2506) cells were obtained from ATCC (Manassas, VA, USA) and cultured following standard procedures. Viability assays were performed utilizing 3-(4,5-dimethylthiazol-2-yl)-2,5-diphenyltetrazolium bromide (MTT) according to methods described elsewhere[46].
# [2] = test system: NCI-H460-APL-R non-small cell lung cancer cells (plitidepsin-resistant); assay: Cell growth inhibition (MTT, 72 h), NCI-H460-APL-R; type: cell-based; settings: highest concentration tested 100 nM
# [3] = test system: HGC27 gastric carcinoma cells; assay: Cell growth inhibition (MTT, 72 h), HGC27; type: cell-based; settings: parental HGC27, 72 h
# Protocol: as §3
# [4] = test system: HGC27-APL-R gastric carcinoma cells (plitidepsin-resistant); assay: Cell growth inhibition (MTT, 72 h), HGC27-APL-R; type: cell-based; settings: highest concentration tested 100 nM
# [5] = test system: HeLa-APL-R cells stably transfected with eEF1A2-GFP; assay: Antiproliferative activity in HeLa-APL-R stably transfected with eEF1A2-GFP; type: cell-based, human; settings: 72 h, MTT
# Protocol: (§1) (A) HeLa and HeLa-APL-R cells were stably transfected with an expression vector encoding for eEF1A2-GFP fusion protein. Clones homogeneously expressing the GFP were selected. The levels of expression of eEF1A2 were analyzed by Western blot using specific antibodies. The position of the endogenous and the GFP-fusion proteins are indicated. […] Levels of expression attained after transfection were similar to the endogenous levels. […] Concentration-response curves were performed at 72 h. Cell growth was determined by the MTT method and expressed as percentage of control cell survival.
# (§2) For transfection and selection of cell clones, HeLa and HeLa-APL-R cells were seeded in 24 well plates at 40% confluence and allowed to stand for 24 hours at 37 °C and 5% CO2. Before transfection, the culture medium was changed to Opti-MEM (Life Technologies, Carlsbad, CA, USA). Plasmids encoding eEF1A2-GFP were incubated with Lipofectamine (Life Technologies, Carlsbad, CA, USA) under the recommendations of the manufacturer and added to the cell medium. After 24 h incubation at 37 °C and 5% CO2, the culture medium was replaced by the standard DMEM supplemented with 2 mg/ml of G-418 for the selection of clones expressing the exogenous gene. Clones were further selected following the expression of the GFP-fused protein through fluorescence microscopy.
# [6] = test system: p38, ERK and JNK phosphorylation in HeLa-APL-R cells expressing eEF1A2-GFP; assay: Signaling (Western blot) in HeLa-APL-R expressing eEF1A2-GFP; type: cell-based, human; settings: plitidepsin 450 nM
# Protocol: as §1, §2
# [7] = test system: signaling in HeLa cells overexpressing eEF1A2-GFP; assay: Signaling (Western blot) in HeLa overexpressing eEF1A2-GFP; type: cell-based, human; settings: plitidepsin 450 nM
# Protocol: as §1, §2
# [8] = biological target: eEF1A2 purified from rabbit muscle (Oryctolagus cuniculus, UniProt Q71V39); assay: biochemical
# Protocol: (A) Saturation binding curve. Protein and radioligand were incubated for 1 h at room temperature and samples were processed as described in the text. […] The experiment was performed as described in the text, and the experimental points were fitted to a single exponential decay equation by non-linear regression. […] Extracts were then digested with the indicated concentrations of subtilisin for 30 min at room temperature. Samples were resolved by SDS-PAGE and the degradation of eEF1A2 analyzed by Western blot; quantitation of the bands from the DARTS assay was performed with the ImageJ software.
# At the selected times after this last addition, 400 μL of each sample were withdrawn and processed as above.
# [9] = test system: subcellular and chromatographic fractions of K-562 cell lysate; assay: Binding of [14C]-plitidepsin to K-562 lysate fractions
# Protocol: Figure 4 Identification of the plitidepsin-binding protein in a K-562 cells lysate. […] In the horizontal axis “P” and “S” mean “pellet” and “supernatant”, respectively, with the figure aside denoting the relative centrifugal force (in thousands of g) used to obtain such fraction. Data (in dpm per mg of protein) represent the mean of three independent samples with error bars showing S.D. * means p < 0.05. (C) Anion-exchange chromatography on DEAE, flow rate 5 mL/min. (D) Cation-exchange chromatography on SP, flow rate 2.5 mL/min. (E) Size exclusion chromatography on Superdex 200, flow rate 4 mL/min. Representative fractions (4-mL) from each portion of the eluates were analyzed for their binding to [^14C]-plitidepsin in the presence (grey bars, non-specific binding) or absence (black bars, total binding) of a 20-fold excess of unlabeled drug. Only fractions showing significant specific binding to the radioligand were pooled and progressed to the next chromatographic step. In all cases absorbance is expressed in mAU and conductivity in mS/cm.
# The rest of the peptides detected in this material corresponded to fragments whose sequences are common to both isoforms, thus discarding the presence of any other protein.
# After 1 h incubation at room temperature 400 μL of each tube were withdrawn and processed as described above.
# [10] = test system: sphingosine kinase-1 (SK1); assay: Sphingosine kinase-1 activity in tumor cells; type: cell-based; settings: preliminary, data not shown
# [11] = test system: sphingosine kinase-1 (SK1); assay: Direct effect on SK1; type: biochemical; settings: preliminary, data not shown
# [12] = test system: CHRM4 (M4 muscarinic acetylcholine receptor); assay: PathHunter acetylcholine-mediated CHRM4 activation; type: cell-based; settings: CHO-transfected cell line, preliminary, data not shown
# Text: For example, it is known that eEF1A is able to directly increase the activity of sphingosine kinase-1 (SK1), an effect that is related to oncogenesis. […] The hijacking of eEF1A with the consequent reduction of SK1 activity has already been described as a biological mechanism in dengue virus type-2 infected cells. Another example is the specific binding of eEF1A2 to the i3 loop of M4, but not M1, muscarinic acetylcholine receptor[40]. This direct interaction with M4 regulates its cell membrane density and activity. […] This is due to a specific interaction of eEF1A with aberrant polypeptides named defective ribosomal products (DRiPs) that are ligated to multi-ubiquitin chains following translation damage; eEF1A also plays a role in sensing DRiP accumulation when the proteasome is inhibited.
# [13] = test system: human haploid cells with eEF1A2 knock-out; settings: CRISPR/CAS9, versus parental cells, data not shown, results not conclusive
# human leukemic cells = settings: cited from earlier work
# Text: The high affinity of this interaction is in consonance with the nanomolar antiproliferative potency of this compound, also observed in many previous reports (for a review see ref. [10]).
# Chain of eEF1A2 purified from rabbit muscle (Q71V39 whole entry): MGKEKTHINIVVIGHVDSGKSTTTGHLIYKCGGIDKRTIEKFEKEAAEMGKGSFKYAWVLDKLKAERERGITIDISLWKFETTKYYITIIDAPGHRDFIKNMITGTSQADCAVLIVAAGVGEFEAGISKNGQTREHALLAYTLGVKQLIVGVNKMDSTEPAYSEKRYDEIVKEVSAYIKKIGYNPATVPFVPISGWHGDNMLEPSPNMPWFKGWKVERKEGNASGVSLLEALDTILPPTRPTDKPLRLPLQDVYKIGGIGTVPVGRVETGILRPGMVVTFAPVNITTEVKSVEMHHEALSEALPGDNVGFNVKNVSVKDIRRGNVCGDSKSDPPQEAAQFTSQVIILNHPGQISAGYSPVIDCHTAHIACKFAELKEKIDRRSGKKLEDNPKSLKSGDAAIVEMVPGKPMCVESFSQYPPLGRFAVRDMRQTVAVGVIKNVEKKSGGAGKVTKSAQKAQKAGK
structure (smiles),measurement,setting,value
"CC[C@H](C)[C@H]1NC(=O)[C@@H](NC(=O)[C@@H](CC(C)C)N(C)C(=O)[C@@H]2CCCN2C(=O)C(C)=O)[C@@H](C)OC(=O)[C@H](Cc2ccc(OC)cc2)N(C)C(=O)[C@@H]2CCCN2C(=O)[C@H](CC(C)C)NC(=O)[C@@H](C)C(=O)[C@H](C(C)C)OC(=O)C[C@@H]1O [plitidepsin, Plitidepsin] (Pyruvoyl-P[dNMeL]T[X1]LP[NMeY](Me); ester 3-C (inferred))",IC50,[1],200 pM
same,effect on cell growth,[2],did not cause any effect on cell growth
same,IC50,[3],900 pM
same,effect on cell growth,[4],did not cause any effect on cell growth
same,sensitivity to plitidepsin after ectopic expression of eEF1A2,[5],partially recovered sensitivity; also recorded: restored the sensitivity
same,"phosphorylation of p38, ERK and JNK",[6],"led to phosphorylation of p38, ERK and JNK"
same,alteration in the signaling elicited by plitidepsin,[7],did not show any alteration in the signaling
same,koff,[8]; read-out: kOFF (first-order rate constant of dissociation),0.0019 ± 8e-07 s⁻¹
same,residence time,"[8]; read-out: target residence time, from dissociation kinetics (kOFF), rabbit eEF1A2",8.8 min
same,proteins detected as capable of binding plitidepsin,"[9]; K-562 lysate, MALDI-TOF/TOF identification",both isoforms of eEF1A are the only proteins
same,specific binding by size-exclusion peaks,"[9]; Superdex 200 peaks, fourth peak eluting at 80 min, ca. 50 kDa",only the fourth one
same,SK1 activity in tumor cells,[10],decrease the activity of this enzyme in tumor cells
same,direct effect on SK1,[11],not due to a direct effect of the drug on SK1
same,decrease of acetylcholine-mediated CHRM4 activation,[12],55%
same,resistance of eEF1A2 knock-out cells to plitidepsin,[13],increased resistance
same,effect of cytochalasin B and jasplakinolide pretreatment on apoptotic response,"human leukemic cells; 10 nM plitidepsin, actin-binding agents",prevented
same,effect of cycloheximide pretreatment on apoptotic response,"human leukemic cells; 10 nM plitidepsin, cycloheximide at concentrations that inhibit protein synthesis",not to be affected
same,apoptotic response,"human leukemic cells; human leukemic cells, 10 nM",fast and complete apoptotic response
